Patent US6750212B2, “Photochemotherapeutic compositions” (PhotoCure AS, priority 1997, dated 2004)

What was measured:
[1] = test system: WiDr human colonic carcinoma; assay: PDT of WiDr human colonic carcinoma in nude mice, laser light 3 hours after drug, tumor regression/regrowth time; format: in vivo, Balb/c nu/nu nude mice
Text: 5-aminolevulinic acid (ALA) hydrochloride was purchased from Sigma Chemical Company (St. Louis, Mo.). ALA was freshly dissolved in isotonic saline and given intraperitoneally to mice. PHOTOFRIN® vascular stroma-localizing photosensitizer was obtained from Quadra Logic Technologies (Vancouver, Canada). The solution of PHOTOFRIN® vascular stroma-localizing photosensitizer was made up in isotonic solution containing 5% dextrose and given to mice intravenously via the tail vein.
Female Balb/c nu/nu nude mice were obtained from The Animal Department, The Norwegian Radium Hospital, housed 10 per cage and kept under specific-pathogen-free conditions. The mice were 6 weeks old and weighed 20-22 g when the experiments started. The WiDr human colonic carcinoma, used in the present study, was propagated by serial transplantation into the nude mice. Non-necrotic tumor material for inoculation was obtained by sterile dissection of large flange tumors from syngeneic mice. Macroscopically viable tumor tissue was gently minced with a pair of scissors and forced repeatedly through sterile needles of diminishing sizes from 19-gauge to 25-gauge to make a tumor-tissue suspension, 0.02 ml of which was then injected into the dorsal side of the right hind foot of each mouse. The rate of successful transplantations was nearly 100% in the present experiments. […] The tumor volume was calculated using the following formula: […]
where D1, D2 and D3 are three orthogonal diameters of the tumors which were measured daily by a caliper.
Unanesthetized mice were fixed in Lucite jigs specially designed for irradiation. The tumor area was exposed to red light from a dicyanomethylane-2-methyl-6-(p-dimethylaminostyryl)-4 H-pyran (DCM) dye laser pumped by a 5W argon ion laser (Spectra Physics, 164). The tuning range was 610-690 nm. The dye laser was tuned at 632 for both ALA-derived PpIX and PHOTOFRIN®vascular stroma-localizing photosensitizer, the tuning being controlled by means of a monochromator. […]
Responses of the treated tumors were evaluated as described previously.

[2] = test system: Colon carcinoma WiDr; assay: PDT of WiDr colon carcinoma in nude mice, Curelight broad-band lamp one hour after drug, regression/regrowth time; format: in vivo, Balb/c nu/nu nude mice; details: for effect on tumor growth after PDT: Example 5.1, FIG. 4, 5-ALA 250 mg/kg i.p. and/or chlorin e6 1 mg/kg i.v., lamp 161 mW/cm^2 15 minutes, one hour after injection; for anti-tumour effect after PDT: Example 5.2, FIG. 5, ALA-methyl ester 273 mg/kg i.p. and/or A1PcS2a 1 mg/kg i.v.
Description: 5-ALA (ALA) and ALA-Methyl ester (ME) were dissolved in isotonic saline to a final concentration of […].
ALA-Butyl ester (BU) was dissolved in a small amouont of ethanol and diluted further in isotonic saline to a final concentration of […] (final ethanol concentration was 2% v/v).
Aluminium phthalocyanine di-sulfonate (A1PcS2a) (Porphyrin Products Inc.) dissolved in a few drops of 1M NaOH and diluted in phosphate buffered saline (PBS, 10 MM Na-phosphate pH 7.4/150 mM NaCl) to a final concentration of 0.25 mg/ml.
Chlorin e6 (e6)(Porphyrin Products Inc.) was dissolved in PBS to a final concentration of 0.25 mg/ml.
ALA, ALA methyl ester or ALA butyl ester were administered intraperitoneally (i.p.), whereas the sensitizers were injected intravenously (i.v.).
All animals received the same amount of ALA (1.5 mmole), either as the free acid or in the form of an ester. […]
Suspensions of the human tumour (Colon carcinoma WiDr-propagated by serial transplantation) was prepared from non-necrotic areas of the respective tumours and injected (20 μl) into the right hind foot of each mouse. […] Injection volume: 100 μl per mouse (approx. 25 g bodyweight).
Illumination occurred one hour after injection of the drugs instead of three hours that was used in previous examples. In contrast to previous examples, a broad-band lamp that covers the range of 600 to 700 nm (Curelight, patent applied for by PhotoCure AS) was used instead of the laser. This was because the light should cover combinations of phthalocyanines (absorption maximum 670 nm) and protoporphyrin IX (absorption maximum 630 nm) induced by ALA or ALA-esters, respectively.
The average tumour volume in each group (mean ±SD) was calculated and plotted against time. The experiment was terminated when the tumor volume had reached 4-5 times the initial volume.
One hour after injection of the drugs the mice were irradiated using the Curelight broad-band lamp (161 mW/cm^2 for 15 minutes-144.9 J/cm^2).
Responses of the tumors were evaluated as regression/regrowth time. The size of the tumours were measured every second day and the tumour volumes calculated according to the formula in Example 2. The mice were sacrificed when the tumour volume had reached 5 times the initial volume. For each time point, the mean (and the standard deviation of the mean) tumour volume (n=4-5) were calculated. The data were then submitted to statistical analysis (Q-test/90% confidence interval) and extreme values were rejected.

[3] = test system: Human rectal papillary villous adenomas; assay: Fluorescence localization in human rectal papillary villous adenomas by fluorescence microscopy; format: in vivo; details: 4.5 hours after oral administration of 60 mg/kg ALA; FIG. 3 B
Description: Human rectal papillary villous adenomas from 2 patients with severe dysplasia and with a diarrheal history for some months before diagnosis were sampled 44 hours after intravenous injection of 2 mg/kg body weight PHOTOFRIN® vascular stroma-localizing photosensitizer or 4.5 hours after oral administration of 60 mg/kg ALA. The samples were immediately immersed in liquid nitrogen, then mounted in medium (Tissue Tek II embedding compound: BDH, Poole, UK). Frozen tissue sections were cut with a cryostat to a thickness of 8 Am and mounted on clean glass slides. The fluorescence localization patterns of ALA-induced PpIX and PHOTOFRIN were studied by fluorescence microscopy. The fluorescence microscopy was carried out with an Axioplan microscope (Zeiss, Germany). The filter combination comprised a 390-440 nm excitation filter, a 460 nm beam splitter and a >600 nm emission filter. The fluorescence images were recorded by a CCD camera (Astromed CCD 3200, Cambridge, UK) and an image processing unit (Astromed/Visilog, PC 486DX2 66 MHz VL).

[4] = Example 3, FIG. 2, ALA 250 mg/kg i.p. (632 nm) and/or m-THPC 75 μg/kg i.v. (652 nm), laser light 3 hours after drug
[5] = Example 5.5, FIG. 8, 5-ALA methyl ester 273 mg/kg i.p. and/or A1PcS4 1 mg/kg i.v., lamp one hour after injection
[6] = Example 5.4, FIG. 7, 5-ALA butyl ester 338 mg/kg i.p. and/or A1PcS2a 1 mg/kg i.v., lamp one hour after injection

NCC(=O)CCC(=O)O [ALA, 5-aminolevulinic acid]
effect on tumor growth after PDT ([1]; Example 2, FIG. 1, ALA 250 mg/kg i.p. and/or PHOTOFRIN 1 mg/kg i.v., laser 632 nm, 150 mW/cm^2 for 15 min, 3 hours after drug): had an effect on the tumor growth | effect on tumor growth after PDT [1, 4]: had an effect on the tumor growth | effect on tumor growth after PDT [2]: had no effect | fluorescence localization of ALA-induced porphyrins in tumor tissue [3]: almost entirely localized within the tumor cells

COC(=O)CCC(=O)CN [ALA-methyl ester, 5-ALA methyl ester]
anti-tumour effect after PDT ([2]; lamp one hour after injection): had no anti-tumour effect | effect on tumour growth after PDT [2, 5]: did not have any effect on tumor growth

CCCCOC(=O)CCC(=O)CN [ALA butyl ester, 5-ALA butyl ester]
time for tumours to reach 4 times the initial volume ([2]; Example 5.3, FIG. 6, 5-ALA butyl ester 338 mg/kg i.p. alone, lamp one hour after injection): 11 days | effect on tumour growth after PDT [2, 6]: almost no effect

Oc1cccc(-c2c3nc(c(-c4cccc(O)c4)c4ccc([nH]4)c(-c4cccc(O)c4)c4nc(c(-c5cccc(O)c5)c5ccc2[nH]5)CC4)C=C3)c1 [m-THPC, tetra(meso-hydroxyphenyl)chlorin]
effect on tumor growth after PDT [1, 4]: no effect

Aluminium phthalocyanine tetra-sulfonate [A1PcS4]
effect on tumour growth after PDT ([2]; Example 5.3, FIG. 6, 5-ALA butyl ester 338 mg/kg i.p. and/or A1PcS4 1 mg/kg i.v., lamp one hour after injection): moderate effect on tumour growth | effect on tumour growth after PDT ([2]; Example 5.3, FIG. 6, high dose A1PcS4 5 mg/kg i.v. alone, lamp one hour after injection): strongly delayed growth | effect on tumour growth after PDT [2, 5]: intermediate effect

Aluminium phthalocyanine di-sulfonate [A1PcS2a]
anti-tumour effect after PDT ([2]; lamp one hour after injection): a slight effect | effect on tumour growth after PDT [2, 6]: immediate effect | time to 4× initial tumour volume ([2]; Example 5.4, FIG. 7, A1PcS2a 1 mg/kg i.v. alone, lamp one hour after injection): ≤ 14 days

C=Cc1c(C)c2cc3nc(c(CC(=O)O)c4[nH]c(cc5nc(cc1[nH]2)C(C)=C5CC)c(C)c4C(=O)O)[C@@H](CCC(=O)O)[C@@H]3C [chlorin e6]
effect on tumor growth after PDT [2]: had no effect
